Measured values taken from US10632147B2, “Methods and compositions for treating inflammatory disorders” (priority 2007, dated 2020).

Settings: in vivo

NCc1ccc(S(N)(=O)=O)cc1 [Sulfamylon]
safety profile (adverse effects): absence of adverse effects
